Values joined by “and” are separate entries in the source; they are usually repeats but may differ in a detail not shown here. Equal values may be shown once. Read-outs that look alike come from different tables or passages of the source.
Assays:
[1] = target: SARS-CoV-2 NSP3 macrodomain (Mac1) (Severe acute respiratory syndrome coronavirus 2, UniProt P0DTD1); assay: biochemical; assay type: binding; conditions: for SARS CoV-2 macrodomain HTRF assay: Hillslope: dose-response fit; for Average % competition: 200 μM, mean of three technical replicates
[2] = target: SARS-CoV-2 NSP3 macrodomain (Mac1), P43 crystal form (Severe acute respiratory syndrome coronavirus 2, UniProt P0DTD1); assay type: binding; conditions: for 1-BDC: PanDDA background density correction; for Total number of conformations: ligand conformations modeled in Mac1 crystal structure; for X-ray crystallography: Binding site: site where the ligand is bound in the X-ray crystal structure
[3] = occupancy estimate from PanDDA BDC
[4] = crystal soak, soak concentration 10 mM, P43 crystals, TRUE = ligand-binding event identified
[5] = crystal soak, soak concentration 10 mM
[6] = crystal soak, soak concentration 10 mM, event 1
[7] = occupancy estimate from PanDDA 1-BDC
[8] = SARS CoV-2 macrodomain HTRF assay, dose-response
[9] = Single dose, concentration 200 μM, read-out: Average % competition
[10] = preliminary screen, compound at 200 μM, mean of 3-4 technical replicates, read-out: % competition in HTRF assay
[11] = X-ray crystal structure determined (TRUE)
[12] = crystal soak 10 mM, P43 crystals
[13] = site of ligand in X-ray crystal structure
[14] = crystal soak concentration 10 mM, P43 crystals
[15] = crystal soak concentration 10 mM
[16] = Single dose, concentration 200 μM, read-out: SARS CoV-2 macrodomain HTRF assay: Average % competition

Compound	Hill slope ([1]; HTRF dose-response fit, Mac1)	SARS CoV-2 macrodomain HTRF assay: Hillslope [1]	1-BDC [2]	Total number of conformations [2]	X-ray crystallography: Binding site [2]	2*(1-BDC) (%) [2, 7]	inhibition at 200 µM [1, 10]	X-ray crystal structure [2, 11]	Pandda run, overall: Hit [2, 12]	Pandda run, overall: Modeled [2, 12]	PanDDA run, DMSO background map: 1-BDC ([2]; crystal soak 10 mM)	PanDDA run, DMSO background map: Hit ([2]; crystal soak 10 mM)	Binding site [2, 13]	other results
OCC1C=CCCN1c1ncnc2[nH]ccc12 (stereo not shown) [AVI-5998]	1.2	1.2	0.19	1	Adenosine									Occupancy difference (refined_occupancy - 2*(1-BDC)) [2]: 0; Refined ligand occupancy (%) [2]: 38%; PanDDA run, DMSO background map: 1-BDC ([2]; event 1): 0.21 and 0.19; 2*(1-BDC) (%) [2, 3]: 38%
c1ccc(-n2nnnc2CSc2nnc(NC3CC3)s2)cc1 [AVI-286]			0.11	1		22%								Average % competition ([1]; Single dose): 0%; X-ray crystal structure ([2]; TRUE = crystal structure with ligand determined): TRUE; Pandda run, overall: Hit [2, 4]: TRUE; PanDDA run, DMSO background map: Hit [2, 5]: TRUE; PanDDA run, DMSO background map: Modeled [2, 5]: TRUE; PanDDA run, DMSO background map: 1-BDC [2, 6]: 0.11; Pandda run, overall: Modeled ([2]; crystal soak, soak concentration 10 mM, TRUE = ligand modeled): TRUE; Binding site ([2]; site of Mac1 where ligand bound in crystal structure): Distal
CCC(C)(CO)Nc1ncnc2[nH]ccc12 (stereo not shown) [AVI-3697]	1.2		0.16	1		32%	91%	TRUE	TRUE	TRUE	0.16	TRUE	Adenosine	Hill slope [1, 8]: 1.2; inhibition at 200 µM [1, 9]: 91%
CC(C)(O)C1C2CCCCC2CN1c1ncnc2[nH]ccc12 (stereo not shown) [AVI-4127]	1.3	1.3	0.25	2	Adenosine									Occupancy difference (refined_occupancy - 2*(1-BDC)) [2]: 10; Phe132 loop open state [2]: TRUE; Refined ligand occupancy (%) [2]: 60%; PanDDA run, DMSO background map: 1-BDC ([2]; crystal soak concentration 10 mM, event 1): 0.23 and 0.25; Pandda run, overall: Hit [2, 14]: TRUE; Pandda run, overall: Modeled [2, 14]: TRUE; Pandda run, overall: Modeling comment [2, 14]: Duplicate, not modeled; PanDDA run, DMSO background map: Hit [2, 15]: TRUE; PanDDA run, DMSO background map: Modeled [2, 15]: TRUE; 2*(1-BDC) (%) [2, 3]: 50%
CCC(CC)(CO)Nc1ncnc2[nH]ccc12 [AVI-3695]	1.3		0.12	2		24%	89%	TRUE	TRUE	TRUE	0.12	TRUE	Adenosine	Hill slope [1, 8]: 1.3; inhibition at 200 µM [1, 9]: 89%
O[C@H]1CC[C@@H]2CCN(c3ncnc4[nH]ccc34)[C@@H]21 [AVI-3664]	1.2	1.2	0.16	1	Adenosine	32%	93%		TRUE	TRUE	0.16	TRUE		inhibition at 200 µM [1, 16]: 93%
OCC1C2CCC(C2)N1c1ncnc2[nH]ccc12 (stereo not shown) [AVI-3713]	1.1	1.1	0.29	1	Adenosine	58%	92%							inhibition at 200 µM [1, 16]: 92%; Pandda run, overall: Modeled [2, 5]: TRUE; Pandda run, overall: Hit ([2]; crystal soak, soak concentration 10 mM, TRUE = ligand hit): TRUE; PanDDA run, DMSO background map: 1-BDC ([2]; soak concentration 10 mM): 0.29; PanDDA run, DMSO background map: Hit ([2]; soak concentration 10 mM): TRUE
CCn1c(C)nnc1Sc1cnc2ccccc2n1 [AVI-297]														Average % competition ([1]; Single dose): 0%; Pandda run, overall: Modeling comment [2, 5]: Only density for quinoxaline, not modeled; Pandda run, overall: Hit [2, 4]: TRUE; PanDDA run, DMSO background map: Hit [2, 5]: TRUE; PanDDA run, DMSO background map: 1-BDC [2, 6]: 0.05
OCC(CN1CCCCC1)Nc1ncnc2[nH]ccc12 (stereo not shown) [AVI-3677]			0.21	1		42%		TRUE	TRUE	TRUE	0.21	TRUE	Adenosine	% competition in HTRF assay ([1]; preliminary screen, compound at 200 μM, mean of 3-4 technical replicates): neither had detectable binding

Reference: article doi:10.1101/2024.08.25.609621 (bioRxiv, 2024)
